“And” between values parts separate entries of the source, which are not always exact repeats. Equal entries are not always repeated.
Experiments:
[1] = Triglycerides in rodent models; format: in vivo
Lung Cancer Model = assay: Lung cancer model rank order; format: in vivo
human RXRa = target: T1, human RXRa (Homo sapiens, UniProt P19793); assay: RXR activation luciferase reporter assay; format: cell-based; conditions: for EC50: Table 6, read-out: RXRα activation (EC50); for RXR assay: luciferase, Control 0, higher numbers indicate higher potency
T1 sequence (P19793 1-462): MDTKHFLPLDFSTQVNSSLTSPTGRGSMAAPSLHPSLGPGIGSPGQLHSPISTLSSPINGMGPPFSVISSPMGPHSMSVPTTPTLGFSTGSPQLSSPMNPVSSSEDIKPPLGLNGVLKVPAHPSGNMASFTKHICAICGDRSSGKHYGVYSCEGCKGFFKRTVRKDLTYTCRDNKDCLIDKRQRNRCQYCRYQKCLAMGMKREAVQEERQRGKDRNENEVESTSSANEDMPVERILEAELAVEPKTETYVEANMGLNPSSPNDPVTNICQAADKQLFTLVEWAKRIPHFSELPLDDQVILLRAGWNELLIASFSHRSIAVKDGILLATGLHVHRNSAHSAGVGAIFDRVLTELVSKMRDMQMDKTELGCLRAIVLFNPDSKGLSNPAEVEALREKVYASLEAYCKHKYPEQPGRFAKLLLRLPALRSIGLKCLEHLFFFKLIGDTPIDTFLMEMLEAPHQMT
Description: Rexinoids are agonists for the retinoid X receptors (RXRs). In this assay, the human RXRa promoter is functionally linked to a luciferase reporter gene. Changes in luciferase expression served as a sensitive surrogate measure of RXR activity. Higher numbers indicate higher potency.

SREBP = SREBP induction in human liver (HepG2) cells, RT-PCR; format: cell-based; design: key to SREBP: fold induction vs DMSO control; conditions: for SREBP activation: fold induction compared to DMSO, several values per cell, Table 6; for SREBP: 300 nM, Control 1.00, lower numbers indicate better safety, Table 2
Protocol: The SREBP transcription factor is involved in triglyceride synthesis, and its activation correlates with increased triglycerides in vivo. […] Lower numbers indicate better safety. […] Lower numbers indicate better safety. Also, for Table 6, SREBP activation was measured as fold induction compared to DMSO, where a lower value indicates the compound is an improvement over a control.

[2] = system: inducible nitric oxide synthase (iNOS); assay: iNOS suppression / NO assay in LPS-stimulated macrophages or RAW264.7 cells (Griess reaction); format: cell-based, mouse; conditions: for activity at 0.1 µM / activity at 0.125 µM / activity at 0.5 µM: Mus musculus; for activity at 0.1 µM: RAW264.7, 24 h, percent of the LPS-stimulated control, lower is better, Table 6; for activity at 0.125 µM / activity at 0.5 µM: RAW264.7, Control 100, lower numbers indicate higher efficacy, read-out: NO Assay; for activity at 0.125 µM: 125 nM; for activity at 0.5 µM: 500 nM
Summary of the method: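 RAW264.7 cells or macrophages incubated with rexinoids (300 nM, or 100 nM/300 nM, or a concentration series) and stimulated with 1–2 ng/ml LPS for 24 h. Nitric oxide released into medium measured by Griess reaction; values given as percent of LPS-stimulated control, % inhibition, or IC50.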

PD-L1 = PD-L1 induction in macrophages or RAW264.7 cells with cancer cell conditioned media (flow cytometry); format: cell-based, mouse; conditions: for PD-L1: Table 2, Control 39.8, higher numbers indicate better upregulation; for PD-L1 Levels: Table 4, Control 43.3
Protocol: RAW 264.7 mouse macrophage-like (ATCC) and E18-14C-27 (Wu et al., Cancer Res. 62, 6376-6380 (2002)) cells were cultured in DMEM supplemented with 10% fetal bovine serum (FBS). RAW 264.7 cells were cultured at 50000/well in a 6 well plate for 24 hours to determine PD-L1 levels. E18-14C-27 cells were cultured for 72 hours in the presence of LG268 for protein levels. Conditioned media was collected from E18-14C-27 at 60-70% confluence for 24 hours; media was then collected and centrifuged at 900 rpm for 5 minutes to eliminate any cell debris.
For PD-L1 staining, RAW 264.7 cells were plated at 25000 cells/ml in 6 well plates for 24 hours before adding conditioned media from E18-14C-27 and LG268. RAW 264.7 cells were cultured for additional 24 hours with E18-14C-27 conditioned media and LG268. […] THP-1 cells were stained and analyzed for the levels of PD-L1 following the same protocol.
Inhibitory receptors on lymphocytes such as PD-1 (programmed cell death protein 1) are important immune checkpoints that protect against autoimmunity as the interaction between PD-L1 (ligand) and the PD-1 receptor expressed on immune cells suppresses T cell activity. Immuno-oncology is revolutionizing cancer treatment, and enormous research efforts are ongoing to identify drugs that upregulate PD-L1 so that they can be combined with checkpoint inhibitors to boost efficacy. Macrophages or RAW264.7 cells are treated with conditioned media from cancer cells and rexinoids, and PD-L1 expression determined by flow cytometry. Higher numbers indicate better upregulation of PD-LI.
Using methods described herein, macrophages or RAW264.7 cells were treated with selected rexinoids and with conditioned media from cancer cells. Structures of the rexinoids are shown below.
PD-L1 expression was determined by flow cytometry.

RAR receptor = conditions: cited from earlier work
[3] = system: mammary gland tumors of MMTV-Neu mice; assay: MMTV-Neu mouse model of HER2 positive breast cancer, rexinoid in diet; conditions: 100 mg/kg diet, LG268 5 days
Protocol: Tumors or mammary glands were homogenized in EBC buffer (1M Tris pH 8, 5M NaCl) with the same protease inhibitors and 10% NP-40 and incubated on ice for 30 min. Protein concentrations were determined by the BCA assay (Sigma-Aldrich). Proteins were resolved by SDS-PAGE, transferred to a nitrocellulose membrane and analyzed with the following antibodies: vinculin, p-STAT1, p-STAT3, p-STAT5 and mouse and rabbit secondary antibodies (Cell Signaling); PD-1, CD206 (Abcam); PD-L1 (R&D). ImageJ was used to quantify the immunoblots, and results were plotted and statistically analyzed using Prism 6. All images shown are representative of 3 independent experiments.
One third of the tumor, mammary gland and spleen removed from MMTV-neu or MMTV-PyMT mice were minced separately and incubated in digestion media consisting of collagenase (300 U/ml, Sigma), dispase (1 U/ml, Worthington), and DNAse (2 U/ml, Calbiochem) for 30 minutes at 37° C. with stirring. Cells were then passed through a 40 μm cell strainer (BD Falcon), and red blood cells eliminated with lysis solution. […] Propidium iodide staining was used to exclude dead cells.
One third of the tumor, spleen and one mammary was removed from MMTV-neu and PyMT mice and fixed in 10% phosphate-buffered formalin for 48 hours, embedded in paraffin blocks, and sectioned (5-6 μm). Hydrogen peroxide was used to quench endogenous peroxidase activity. Sections were immunostained with antibodies raised against CD206 (1:200, Abcam), Gr1 (1:40, BM8, R&D), CD8 (1:40, Biolegend), FOXP3 (1:50, EBiosciences), PD-1 (1:100, Abcam), PD-L1 (1:50, Abcam), cleaved caspase 3 (Cell Signaling) and visualized with biotinylated anti-rabbit or anti-rat secondary antibodies (Cell Signaling or Vector Labs). Signal was detected using a DAB substrate (Cell Signaling) following the manufacturer's recommendations. Sections were counterstained with hematoxylin (Vector Labs).
Both rexinoid treatments were 100 mg/kg of diet, which is equivalent to 25 mg/kg of body weight (FIG. 1B).

[4] = Toxicity in A/J mice with lung tumors fed rexinoids plus carboplatin and paclitaxel; format: in vivo; conditions: 100 mg/kg diet, 7 weeks
Protocol: A/J mice with lung tumors (detected by ultrasound) were fed rexinoids in their diets (at 100 mg/kg diet) and injected twice every other week with carboplatin and paclitaxel.

[5] = bexarotene 10 days, western blot

| SMILES | Triglyccerides (Rodent Models) [1] | Lung Cancer Model Rank Order (Lung Cancer Model) | EC50 (human RXRa) [nM] | SREBP activation (SREBP) | activity at 0.1 µM ([2]; at 100 nM) [%] | PD-L1 (PD-L1; 100 nM) | SREBP (SREBP) | activity at 0.125 µM [2] [%] | activity at 0.5 µM [2] [%] | other results |
| --- | --- | --- | --- | --- | --- | --- | --- | --- | --- | --- |
| Cc1cc2c(cc1C1(c3ncc(C(=O)O)cn3)CC1)C(C)(C)CCC2(C)C [drawing 98, reference compound] | Modest Elevation | 3 | 25 to 50 | ~1.25 fold induction | ~25 |  |  |  |  |  |
| Cc1cc2c(cc1C1(c3ccc(C(=O)O)cn3)CC1)C(C)(C)CCC2(C)C [drawing 95, reference compound] | Elevated | 1 |  | 3.9 fold induction and 3.1 fold induction and 3.2 fold induction | 15 to 20 |  |  |  |  |  |
| C=C(c1ccc(C(=O)O)cc1)c1cc2c(cc1C)C(C)(C)CCC2(C)C [Bexarotene, bexarotene] | Elevated | 5 |  | 2.7 fold induction and 2.9 fold induction and 1.95 fold induction | 30 to 35 | 58.5 | 2.13 | 78 | 32.4 | PD-L1 Levels (PD-L1; 100 nM): 51.2; PD-L1 Levels (PD-L1; 1000 nM): 64; PD-L1 levels in RAW 264.7 cells with E18-14C-27C conditioned media (PD-L1; 24 hours): no changes; binding to the RAR receptor (RAR receptor): limited RAR binding; iNOS ([2]; at 100 nM, comparators of Table 3): 22-40% at 100 nM; PD-L1 expression in tumors vs control ([3]; CW-V-125 10 days, western blot and/or immunohistochemistry): did not significantly induce; myeloid derived suppressor cells (CD45+, CD11b+, Gr1+) in tumors ([3]; bexarotene 10 days, control 1.9%): did not alter; mammary tumor size (tumor weight as percentage of total body weight) ([3]; bexarotene 10 days, control diet 3.2%): did not reduce; cleaved caspase 3 in tumors ([3]; bexarotene 10 days, immunohistochemistry): did not increase; reduction of CD206 expression in tumor lysates [3, 5]: did not induce a change; reduction of p-STAT1 expression in whole tumor lysates [3, 5]: no changes |
| CC(/C=C/[C@@H]1C[C@]1(C)c1cc2c(cc1C)C(C)(C)CCC2(C)C)=C\C(=O)O [reference compound] | Elevated | 2 | 1 to 25 | ~3.6 fold induction | 15 to 20 |  |  |  |  |  |
| CC(C)CN(c1cc(C(C)(C)C)cc(C(C)(C)C)c1)c1ccc(C(=O)O)cn1 [Compound 18, 6-[(3,5-di-tert-butylphenyl)(2-methylpropyl)amino]pyridine-3-carboxylic Acid] |  |  |  |  |  | 58.5 | 1.52 | 52 | 11.5 | RXR assay (human RXRa; 100 nM): 12881; RXR assay (human RXRa; 2500 nM): 35605; toxicity findings (liver, triglycerides, cholesterol, fur) [4]: normal coats; toxicity findings (liver, triglycerides, cholesterol, fur) ([4]; listed as MSU-42011): less toxicity than LG100268 |
